{
  "source": "patent US20240317865A1",
  "about": "“ANTIBODIES AGAINST INTEGRIN ALPHA 11 BETA 1” (MOMENTA PHARMACEUTICALS, INC., priority 2020, published 2024)",
  "system": "A549 cell xenografts",
  "experiment": "Tumor xenograft model",
  "type": "in vivo, C.B-17 SCID mice",
  "settings": "docetaxel 10 mg/kg every 4 days, 6 doses",
  "method": "Fifty-six female C.B-17 SCID mice were inoculated with A549 cells (5×10^6 cells/mouse) subcutaneously in the flank. Once tumor volume reached ˜100 mm^3, animals were randomized amongst 7 groups of 8 mice each. Mice were then treated intraperitonealy every 3 days for a total of 7 doses with isotype controls or novel mAbs 79E3E3, 16E10 and 9G04 (2 and 20 mg/kg) or with docetaxel at 10 mg/kg every 4 days for a total of 6 doses. Tumor volumes and body weights were recorded twice a week with a gap of 2-3 days in between two measurements until any of the following conditions defined were observed: loss of 20% or more body weight; tumors that inhibit normal physiological function such as eating, drinking, and mobility; ulcerated tumors; tumor size greater than 2000 mm^3 and clinical observations of prostration, paralysis, seizures and hemorrhages.\nIn this example, studies were performed to determine if inhibition of α11β1 function with mAb results in xenograft growth inhibition. As shown in FIG. 16 and Table 4, blocking α11β1 on mouse CAFs impeded xenograft growth in SCID mice.",
  "data": [
    {"smiles": "CC(=O)O[C@@]12CO[C@@H]1C[C@H](O)[C@@]1(C)C(=O)[C@H](O)C3=C(C)[C@@H](OC(=O)[C@H](O)[C@@H](NC(=O)OC(C)(C)C)c4ccccc4)C[C@@](O)([C@@H](OC(=O)c4ccccc4)[C@H]21)C3(C)C", "note": "[Docetaxel, docetaxel, reference compound]", "values": [
      {"measurement": "Days to Volume Doubling (ave, 95% CI)", "result": "11.0 (10.0, 12.0) Days"}
    ]}
  ]
}
